Among the data in patent publication US20250136576A1, “Heterocyclic Compounds and Uses Thereof” (ACEA Therapeutics, Inc., priority 2021, published 2025) are IC50 values, retold here.

Molecules are shown by their SMILES.

For this experiment, the system named is KM12-luc cells. The experiment is described as follows: Cell proliferation and growth inhibition assay (CCK-8) in KM12-luc. It is filed as cell-based. Conditions: KM12-Luc, 72 h, KM12-luc cells, treated with test compounds for 72 hrs, CCK-8 viability; read-out: NTRK IC50 in KM12-luc. In short, it runs like this: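 Cells were grown at 37 °C, 5% CO2 with 10% FBS: MV-4-11 in IMDM, H1975 in RPMI 1640, KM12-luc in DMEM. Viability was read by CCK-8 (1-4 hrs reagent incubation, absorbance at OD450). IC50 came from a non-linear sigmoidal dose-response fit.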
As for `COc1c(N)nc(Nc2ccc(N(C)CCN(C)C)c(N)c2)nc1-c1cn(C)c2ccccc12` [Compound 294, N^4-(4-amino-5-methoxy-6-(1-methyl-1H-indol-3-yl)pyrimidin-2-yl)-N^1-(2-(dimethylamino)ethyl)-N^1-methylbenzene-1,2,4-triamine], the half-inhibitory concentration (IC50) was determined as 167 nM.

For the molecule `COc1c(N)nc(Nc2ccc(N(C)CCN(C)C)c(NC(C)=O)c2)nc1-c1cn(C)c2ccccc12` [Compound 295, N-(5-((4-amino-5-methoxy-6-(1-methyl-1H-indol-3-yl)pyrimidin-2-yl)amino)-2-((2-(dimethylamino)ethyl) (methyl)amino)phenyl) acetamide], the IC50 stood at 159 nM.

On to `CN(C)CCN(C)c1ccc(Nc2ncc(C(F)(F)F)c(-c3c[nH]c4ccccc34)n2)cc1N` [Compound 297, N^4-(4-(1H-indol-3-yl)-5-(trifluoromethyl)pyrimidin-2-yl)-N^1-(2-(dimethylamino)ethyl)-N^1-methylbenzene-1,2,4-triamine], for which the IC50 is 37.7 nM.

Take `CC(=O)Nc1cc(Nc2ncc(C(F)(F)F)c(-c3c[nH]c4ccccc34)n2)cc(F)c1N(C)CCN(C)C` [Compound 299a, N-(5-((4-(1H-indol-3-yl)-5-(trifluoromethyl)pyrimidin-2-yl)amino)-2-((2-(dimethylamino)ethyl)(methyl)amino)-3-fluorophenyl)acetamide]: the 50% inhibitory concentration (IC50) came to 48.1 nM.

As for `CC(=O)Nc1cc(Nc2nc(-c3c[nH]c4ccccc34)ncc2C(F)(F)F)cc(F)c1N(C)CCN(C)C` [Compound 299b, N-(5-((2-(1H-indol-3-yl)-5-(trifluoromethyl)pyrimidin-4-yl)amino)-2-((2-(dimethylamino)ethyl)(methyl)amino)-3-fluorophenyl)acetamide], the IC50 stood at 3380 nM.

Take `CCN(CCN(C)C)c1ccc(Nc2ncc(C(F)(F)F)c(-c3c[nH]c4ccccc34)n2)cc1NC(C)=O` [Compound 300a, N-(5-((4-(1H-indol-3-yl)-5-(trifluoromethyl)pyrimidin-2-yl)amino)-2-((2-(dimethylamino)ethyl)(ethyl)amino)phenyl)acetamide]: the IC50 was 27.9 nM.

On to `CCN(CCN(C)C)c1ccc(Nc2nc(-c3c[nH]c4ccccc34)ncc2C(F)(F)F)cc1NC(C)=O` [Compound 300b, N-(5-((2-(1H-indol-3-yl)-5-(trifluoromethyl)pyrimidin-4-yl)amino)-2-((2-(dimethylamino)ethyl)(ethyl)amino)phenyl)acetamide], for which the 50% inhibitory concentration (IC50) was 3680 nM.

Regarding `CCN(CCN(C)C)c1ccc(Nc2ncc(C(F)(F)F)c(-c3c[nH]c4ccccc34)n2)cc1N` [Compound 301, N^4-(4-(1H-indol-3-yl)-5-(trifluoromethyl)pyrimidin-2-yl)-N^1-(2-(dimethylamino)ethyl)-N-ethylbenzene-1,2,4-triamine], the concentration for half-maximal inhibition (IC50) was found to be 75.4 nM.

Consider `CCC(=O)Nc1cc(Nc2ncc(C(F)(F)F)c(-c3c[nH]c4ccccc34)n2)ccc1N(CC)CCN(C)C` [Compound 302, N-(5-((4-(1H-indol-3-yl)-5-(trifluoromethyl)pyrimidin-2-yl)amino)-2-((2-(dimethylamino)ethyl)(ethyl)amino)phenyl)propionamide], for which the IC50 came to 96.8 nM.

For the molecule `Cc1nc2cc(Nc3ncc(C(F)(F)F)c(-c4c[nH]c5ccccc45)n3)ccc2n1CCN(C)C` [Compound 303b, N^1—N-(4-(1H-indol-3-yl)-5-(trifluoromethyl)pyrimidin-2-yl)-1-(2-(dimethylamino)ethyl)-2-methyl-1H-benzo[d]imidazol-5-amine], the IC50 is 64.3 nM.

With `CC(=O)Nc1cc(Nc2ncc(C(F)(F)F)c(-c3c[nH]c4ccccc34)n2)ccc1OCCN(C)C` [Compound 304, N-(5-((4-(1H-indol-3-yl)-5-(trifluoromethyl)pyrimidin-2-yl)amino)-2-(2-(dimethylamino)ethoxy)phenyl)acetamide], the IC50 is 75.1 nM.

Turning to `CN(C)CCN(C)c1ccc(Nc2ncc(C(F)(F)F)c(-c3cn(C)c4ccccc34)n2)cc1N` [Compound 306, N^1-(2-(dimethylamino)ethyl)-N^1-methyl-N^4-(4-(1-methyl-1H-indol-3-yl)-5-(trifluoromethyl)pyrimidin-2-yl)benzene-1,2,4-triamine], the 50% inhibitory concentration (IC50) is 56.1 nM.

As to `CC(=O)Nc1cc(Nc2ncc(C(F)(F)F)c(-c3cn(C)c4ccccc34)n2)cc(F)c1N(C)CCN(C)C` [Compound 308, N-(2-((2-(dimethylamino)ethyl)(methyl)amino)-3-fluoro-5-((4-(1-methyl-1H-indol-3-yl)-5-(trifluoromethyl)pyrimidin-2-yl)amino)phenyl)acetamide], the IC50 came to 139 nM.

On to `CCN(CCN(C)C)c1ccc(Nc2ncc(C(F)(F)F)c(-c3cn(C)c4ccccc34)n2)cc1NC(C)=O` [Compound 309, N-(2-((2-(dimethylamino)ethyl)(ethyl)amino)-5-((4-(1-methyl-1H-indol-3-yl)-5-(trifluoromethyl)pyrimidin-2-yl)amino)phenyl)acetamide], for which the half-maximal inhibitory concentration (IC50) came to 135 nM.

On to `CCN(CCN(C)C)c1ccc(Nc2ncc(C(F)(F)F)c(-c3cn(C)c4ccccc34)n2)cc1N` [Compound 310, N^1-(2-(dimethylamino)ethyl)-N^1-ethyl-N^4-(4-(1-methyl-1H-indol-3-yl)-5-(trifluoromethyl)pyrimidin-2-yl)benzene-1,2,4-triamine], for which the IC50 turned out to be 305 nM.

Take `CC(=O)Nc1cc(Nc2ncc(C(F)(F)F)c(-c3cn(C)c4ccccc34)n2)c(F)cc1N(C)CCN(C)C` [Compound 313, N-(2-((2-(dimethylamino)ethyl)(methyl)amino)-4-fluoro-5-((4-(1-methyl-1H-indol-3-yl)-5-(trifluoromethyl)pyrimidin-2-yl)amino)phenyl)acetamide]: the IC50 was 308 nM.

Consider `CC(=O)Nc1cc(Nc2ncc(C(F)(F)F)c(-c3cn(C)c4ccccc34)n2)ccc1N(CCN(C)C)C(C)=O` [Compound 314a, N-(2-acetamido-4-((4-(1-methyl-1H-indol-3-yl)-5-(trifluoromethyl)pyrimidin-2-yl)amino)phenyl)-N-(2-(dimethylamino)ethyl)acetamide], for which the 50% inhibitory concentration (IC50) was found to be 63.2 nM.

Take `Cc1nc2cc(Nc3ncc(C(F)(F)F)c(-c4cn(C)c5ccccc45)n3)ccc2n1CCN(C)C` [Compound 314b, 1-(2-(dimethylamino)ethyl)-2-methyl-N-(4-(1-methyl-1H-indol-3-yl)-5-(trifluoromethyl)pyrimidin-2-yl)-1H-benzo[d]imidazol-5-amine]: the half-inhibitory concentration (IC50) was determined as 139 nM.

For `CC(=O)Nc1cc(Nc2ncc(C(F)(F)F)c(-c3cn(C)c4ccccc34)n2)ccc1OCCN(C)C` [Compound 315, N-(2-(2-(dimethylamino)ethoxy)-5-((4-(1-methyl-1H-indol-3-yl)-5-(trifluoromethyl)pyrimidin-2-yl)amino)phenyl)acetamide], the half-maximal inhibitory concentration (IC50) came to 85.1 nM.

Turning to `CN(C)CCN(C)c1ccc(Nc2ncc(C(F)(F)F)c(-c3c[nH]c4cccc(F)c34)n2)cc1N` [Compound 317, N^1-(2-(dimethylamino)ethyl)-N^4-(4-(4-fluoro-1H-indol-3-yl)-5-(trifluoromethyl)pyrimidin-2-yl)-N^1-methylbenzene-1,2,4-triamine], the IC50 stood at 24.9 nM.

Turning to `CCN(CCN(C)C)c1ccc(Nc2ncc(C(F)(F)F)c(-c3c[nH]c4cccc(F)c34)n2)cc1NC(C)=O` [Compound 318, N-(2-((2-(dimethylamino)ethyl)(ethyl)amino)-5-((4-(4-fluoro-1H-indol-3-yl)-5-(trifluoromethyl)pyrimidin-2-yl)amino)phenyl)acetamide], the IC50 turned out to be 43.2 nM.

Regarding `CC(=O)Nc1cc(Nc2ncc(C(F)(F)F)c(-c3cn(C)c4cccc(F)c34)n2)ccc1N(C)CCN(C)C` [Compound 320, N-(2-((2-(dimethylamino)ethyl)(methyl)amino)-5-((4-(4-fluoro-1-methyl-1H-indol-3-yl)-5-(trifluoromethyl)pyrimidin-2-yl)amino)phenyl)acetamide], the IC50 came to 91.1 nM.

For the molecule `CC(=O)Nc1cc(Nc2ncc(C(F)(F)F)c(-c3c[nH]c4ccc(F)cc34)n2)ccc1N(C)CCN(C)C` [Compound 321, N-(2-((2-(dimethylamino)ethyl)(methyl)amino)-5-((4-(5-fluoro-1H-indol-3-yl)-5-(trifluoromethyl)pyrimidin-2-yl)amino)phenyl)acetamide], the half-maximal inhibitory concentration (IC50) came out at 14.8 nM.

Turning to `CN(C)CCN(C)c1ccc(Nc2ncc(C(F)(F)F)c(-c3c[nH]c4ccc(F)cc34)n2)cc1N` [Compound 322, N^1-(2-(dimethylamino)ethyl)-N^4-(4-(5-fluoro-1H-indol-3-yl)-5-(trifluoromethyl)pyrimidin-2-yl)-N^1-methylbenzene-1,2,4-triamine], the concentration for half-maximal inhibition (IC50) stood at 8.3 nM.

Regarding `CCN(CCN(C)C)c1ccc(Nc2ncc(C(F)(F)F)c(-c3c[nH]c4ccc(F)cc34)n2)cc1NC(C)=O` [Compound 323, N-(2-((2-(dimethylamino)ethyl)(ethyl)amino)-5-((4-(5-fluoro-1H-indol-3-yl)-5-(trifluoromethyl)pyrimidin-2-yl)amino)phenyl)acetamide], the half-maximal inhibitory concentration (IC50) is 18.9 nM.

As for `CCN(CCN(C)C)c1ccc(Nc2ncc(C(F)(F)F)c(-c3c[nH]c4ccc(F)cc34)n2)cc1N` [Compound 324, N^1-(2-(dimethylamino)ethyl)-N^1-ethyl-N^4-(4-(5-fluoro-1H-indol-3-yl)-5-(trifluoromethyl)pyrimidin-2-yl)benzene-1,2,4-triamine], the half-maximal inhibitory concentration (IC50) is 17.5 nM.

On to `CC(=O)Nc1cc(Nc2ncc(C(F)(F)F)c(-c3cn(C)c4ccc(F)cc34)n2)ccc1N(C)CCN(C)C` [Compound 325, N-(2-((2-(dimethylamino)ethyl)(methyl)amino)-5-((4-(5-fluoro-1-methyl-1H-indol-3-yl)-5-(trifluoromethyl)pyrimidin-2-yl)amino)phenyl)acetamide], for which the half-inhibitory concentration (IC50) amounted to 39.4 nM.

`CN(C)CCN(C)c1ccc(Nc2ncc(C(F)(F)F)c(-c3cn(C)c4ccc(F)cc34)n2)cc1N` [Compound 326, N^1-(2-(dimethylamino)ethyl)-N^4-(4-(5-fluoro-1-methyl-1H-indol-3-yl)-5-(trifluoromethyl)pyrimidin-2-yl)-N^1-methylbenzene-1,2,4-triamine]: the IC50 came out at 58.2 nM.

For orientation: IC50 means the concentration needed to halve the response being measured.
